These results are taken from ChEMBL document CHEMBL6096697, “Structure-Guided Discovery of Novel N4-(Substituted Thiazol-2-yl)-N2-(4-Substituted phenyl)pyrimidine-2,4-Diamines as Potent CDK2 and CDK9 Dual Inhibitors with High Oral Bioavailability” (J Med Chem, 2025).

Usually IC50 stands for the midpoint of a concentration-inhibition curve. The term AUC(0-inf) denotes total exposure, with the tail of the curve extrapolated. Read a low AUC(0-inf) as low exposure.

Some results are limits rather than exact numbers.

Data set [1] has as its system HeLa. Description: Antiproliferative activity against human HeLa cells assessed as cell growth inhibition incubated for 48 hrs by MTT assay. Type of data set: functional, cell-based. On the technique in general: Tetrazolium assays rely on reduction of a dye to a coloured formazan, in cell work by metabolically active cells.
Data set [2] deals with HT-29. Put plainly: Antiproliferative activity against human HT-29 cells assessed as cell growth inhibition incubated for 48 hrs by MTT assay. Type of data set: functional, cell-based. The settings on record: HT-29, 48 h.
The test system of data set [3] is A549. Description: Antiproliferative activity against human A549 cells assessed as cell growth inhibition incubated for 48 hrs by MTT assay. Type of data set: functional, cell-based. The settings on record: A549, 48 h.
The subject of data set [4] is HCT-116. Put plainly: Induction of cell cycle arrest in human HCT-116 cells assessed as accumulation at sub-G1 phase at 0.8 uM incubated for 24 hrs by PI staining based flow cytometry (reference value: 2.45 +/- 0.49 %). Type of data set: functional.
Data set [5] deals with HeLa. Description: Induction of cell cycle arrest at G2/M phase in human HeLa cells assessed as decrease in p-Cdc2 level at 1.8 uM by Western blot analysis. The settings on record: time <= 48.0 hrs. The data set is classed as functional, cell-based. For orientation: A western blot detects proteins with antibodies after separation by electrophoresis.
Data set [6] has as its system HCT-116. Description: Induction of apoptosis in human HCT-116 cells assessed as early apoptotic cells at 0.2 uM incubated for 24 hrs by PI staining based flow cytometry (reference value: 0.19 %). The data set is classed as functional. (In general: Flow cytometry measures light scatter and fluorescence of single cells or particles in a stream.)
For data set [7], the system named is HCT-116. Put plainly: Induction of apoptosis in human HCT-116 cells assessed as necrotic cells at 0.2 uM incubated for 24 hrs by PI staining based flow cytometry (reference value: 18.9 %). Type of data set: functional.
Data set [8] has as its system HeLa. Put plainly: Induction of apoptosis in human HeLa cells assessed as viable cells at 0.9 uM incubated for 24 hrs by PI staining based flow cytometry (reference value: 68.9 %). Type of data set: functional. The settings on record: read-out: Activity.
Data set [9] has as its system HeLa. Put plainly: Induction of apoptosis in human HeLa cells assessed as early apoptotic cells at 3.6 uM incubated for 24 hrs by PI staining based flow cytometry (reference value: 0.8 %). Type of data set: functional.
Data set [10] is described as follows: AUC (0 to infinity) in Sprague-Dawley rat at 10 mg/kg, po measured for 36 hrs by MRM analysis. The data set is classed as ADME, organism-based. The settings on record: in vivo.

For `Cc1cnc(Nc2ccc(S(N)(=O)=O)cc2)nc1Nc1nccs1`, the concentration for half-maximal inhibition (IC50) is 1.84 µM in [1], 3.62 µM in data set [2] and more than 30 µM in data set [3]. For the same molecule, the Activity is 1.71% in data set [4]; “Time-dependent-effect” in [5]; 2% in [6]; 3.6% in data set [7]; 61% in [9]. In addition, the viability at 0.9 µM in [8] was found to be 29.1%. The AUC(0-inf) in [10] was 0.146 µg·h/mL.
